Source: patent publication EP0866709B1, “1,2,4-BENZOTRIAZINE OXIDES FORMULATIONS” (priority 1995, dated 1997)
Converted amounts (≈) assume the structure as drawn. Where two headings read alike, the source gives them in different places.

How the values were obtained:
[1] = tested on: mouse SCCVII tumors; assay: Tirapazamine with fractionated radiation in vivo; settings: multiple 0.08 mmol/kg (43 mg/m^2) doses given prior to each radiation fraction (2.5 Gy x 8)
[2] = Stress stability study, multiple autoclave cycles of 21 minutes at 121°C; assay type: physicochemical
Description: Stress studies were conducted using multiple autoclave cycles of 21 minutes at 121°C. […] A shift in the normal saline formulation pH occurred after eight autoclave cycles from 4.5 to 4.9, therefore formulations required some degree of buffering.

[3] = phosphate buffer at pH 7.4; cited from earlier work
[4] = tested on: A549; assay: In vitro cytotoxicity under aerobic or hypoxic conditions; assay type: cell-based; settings: Homo sapiens; A549 (tumor); 1-hour incubation under hypoxic conditions
[5] = tested on: FSaIIC fibrosarcoma; assay: Tirapazamine alone in vivo; set-up: species or system mice
Excerpt: (§1) When given alone in vivo in mice, tirapazamine-in single doses-would be expected to produce a relatively small cell kill corresponding to the percentage of tumor cells which are hypoxic. A number of experiments have shown this to be the case, with cell kills typically less than one log (surviving fraction ≥ 1•10^-1). For example, the maximum cell kill observed following a single does was in the SCCVII tumor (surviving fraction = 5•10^-1), and only a small tumor growth delay of 3 days was produced in the FSaIIC fibrosarcoma.

[6] = tested on: FSaIIC fibrosarcoma; assay: Tirapazamine with chemotherapy in vivo; set-up: species or system mice; settings: tirapazamine 50 mg/kg IP added to cyclophosphamide (150 mg/kg IP), melphalan (10 mg/kg IP), or cisplatin (10 mg/kg IP)
[7] = Degradation on refluxing in 0.1 N sodium hydroxide; assay type: physicochemical
[8] = assay type: physicochemical
Excerpt: […]. The planar nature of the molecule would facilitate an ordered stacking with the crystal with intermolecular attractions (charge transfer interactions) between each plane via the nitrogen and oxygen of the N-oxide functions. A hydrated form of tirapazamine can exist where water molecules are hydrogen bonded to the oxygen components.

[9] = tested on: AG 1522; assay: In vitro cytotoxicity under aerobic or hypoxic conditions; assay type: cell-based; settings: Homo sapiens; AG 1522 (normal); 1-hour incubation under hypoxic conditions
[10] = tested on: mouse tumor models; assay: Tirapazamine with radiation in vivo
[11] = tested on: HT 1080; assay: In vitro cytotoxicity under aerobic or hypoxic conditions; assay type: cell-based; settings: Homo sapiens; HT 1080 (tumor); 1-hour incubation under hypoxic conditions
[12] = tested on: SCCVII; assay: as above; assay type: cell-based; settings: Mus musculus; SCCVII (tumor); 1-hour incubation under hypoxic conditions
[13] = Solubility of tirapazamine in water and various vehicles; assay type: physicochemical
[14] = tested on: FSaIIC Murine Fibrosarcoma; settings: administered just before single-dose treatment with cyclophosphamide, carmustine or melphalan; cited from earlier work
[15] = in vivo; settings: mouse
[16] = Stress stability on storage at 50°C and 70°C after a single autoclave cycle; assay type: physicochemical
Description: Formulations were also stressed by storing at elevated temperatures of 50°C and 70°C after a single autoclave cycle of 21 minutes at 121°C. […] This instability was not apparent from multiple autoclave stressing.
The clinical formulation used in chemical studies discussed later was as follows: […]

[17] = tested on: mouse tumors; assay: Tirapazamine alone in vivo, tumor cell kill; set-up: species or system mice; settings: given without radiation; typical
Excerpt: as §1, with “. When” for “When”
[…]. However, the lowest surviving fraction seen in four different mouse tumors was 5•10^-1, and down to 5•10^-2 in a fifth mouse tumor (RIF-1 tumor).

[18] = tested on: RIF-1; assay: In vitro cytotoxicity under aerobic or hypoxic conditions; assay type: cell-based; settings: Mus musculus; RIF-1 (tumor); 1-hour incubation under hypoxic conditions
[19] = tested on: CHO-HA-1; assay: as above; assay type: cell-based, Hamster; settings: CHO-HA-1 (normal); 1-hour incubation under hypoxic conditions
[20] = tested on: HCT-8; assay: as above; assay type: cell-based; settings: Homo sapiens; HCT-8 (tumor); 1-hour incubation under hypoxic conditions
[21] = tested on: rat; assay: Single and 2-week and 2-month multiple-dose studies; assay type: in vivo; settings: each regimen (single, 2-week, 2-month multiple-dose)
Description: (§2) Single and 2-week and 2-month multiple-dose studies were performed in the rat and the dog.

[22] = tested on: dog; assay: as above; assay type: in vivo; settings: each regimen (single, 2-week, 2-month multiple-dose)
Description: as §2

[23] = tested on: hypoxic cells; settings: Human; in vitro; drug concentration required under aerobic vs. hypoxic conditions for equivalent cell killing; cited from earlier work
[24] = tested on: hypoxic cells; settings: cited from earlier work
[25] = Rodent, in vitro, drug concentration required under aerobic vs. hypoxic conditions for equivalent cell killing

## Nc1n[n+]([O-])c2ccccc2[n+]1[O-] [Tirapazamine, 1,2,4-benzotriazine-3-amine 1,4-dioxide]
[1]
  cures: several cures
[2]; acidic solutions of normal saline or solutions buffered to pH 4 using 0.05M citrate or 0.1 M lactate buffer
  Stability: more stable
[2]; citrate buffer at pH 6
  Stability: unstable
[2]; phosphate buffer at pH 5.9
  Stability: unstable
[3]
  Stability: stable
[4]
  IC50: 15 µM
[5]; 25 to 75 mg/kg IP, mice bearing the FSaIIC fibrosarcoma
  direct tumor cell killing: some direct tumor cell killing was observed
[5]; alone, single dose, FSaIIC fibrosarcoma
  tumor growth delay: 3 days
[6]
  increases in tumor growth delay: 1.6- to 5.3 fold
[7]
  Degradation: complete degradation occurs after refluxing for less than four hours
[8]
  partition coefficient (octanol/water): 0.15
[9]
  IC50: 13 µM
[10]; one study
  antitumor effect of tirapazamine plus radiation versus additive effect: exceeds the additive effect of these two treatments
  enhancement of the antitumor activity of radiation, compared with etanidazole: to a greater extent than did the hypoxic cell sensitizer etanidazole
[10]; single 0.30 mmol/kg (160mg/m^2) dose versus multiple 0.08 mmol/kg (43 mg/m^2) doses, fractionated radiation (2.5 Gy x 8)
  effectiveness with fractionated radiation: equally effective
[10]; single 0.30 mmol/kg (160mg/m^2) dose with a single large (20 Gy) dose of radiation
  effectiveness with single-dose radiation: effective
[10]; tumors FSaIIC, SCCVII, RIF-1, EMT6, and KHT, single- or multiple-dose schedule, single-dose or fractionated radiation
  antitumor activity of radiation (cell killing or tumor growth delay): augments the antitumor activity of radiation
[11]
  IC50: 22 µM
[12]
  IC50: 4 µM
[13]; 1% benzyl alcohol : 10% ethanol : 89% water, v/v, 15 °C, aqueous with cosolvent or surfactant or cyclodextrin, 1% Benzyl alcohol: 10% ethanol:89% water, v/v, 15°C
  solubility: 1230 µg/mL (≈ 6.9 mM)
[13]; Albumin 4.5% w/v, 20 °C, plasma or biological fluid
  solubility: 1330 µg/mL (≈ 7.47 mM)
[13]; Albumin 20% w/v, 20 °C, plasma or biological fluid
  solubility: 1710 µg/mL (≈ 9.6 mM)
[13]; Dimethylformamide 25% v/v in water, 15 °C, aqueous with cosolvent or surfactant or cyclodextrin
  solubility: 1830 µg/mL (≈ 10.3 mM)
[13]; Ethanol 10% v/v in water, 15 °C, aqueous with cosolvent or surfactant or cyclodextrin
  solubility: 930 µg/mL (≈ 5.22 mM)
[13]; Ethanol 50% v/v in water, 15 °C, aqueous with cosolvent or surfactant or cyclodextrin
  solubility: 2320 µg/mL (≈ 13 mM)
[13]; Ethanol 65% v/v in water, 15 °C, aqueous with cosolvent or surfactant or cyclodextrin
  solubility: 2840 µg/mL (≈ 15.9 mM)
[13]; Ethanol 85% v/v in water, 15 °C, aqueous with cosolvent or surfactant or cyclodextrin
  solubility: 1710 µg/mL (≈ 9.6 mM)
[13]; Ethanol, 15 °C, organic solvent or mixture
  solubility: 470 µg/mL (≈ 2.64 mM)
[13]; Glycerol 50% v/v in water, 15 °C, aqueous with cosolvent or surfactant or cyclodextrin
  solubility: 2930 µg/mL (≈ 16.4 mM)
[13]; Glycerol, 15 °C, organic solvent or mixture
  solubility: 4590 µg/mL (≈ 25.8 mM)
[13]; Normal Saline, 15 °C, saline or isotonic
  solubility: 850 µg/mL (≈ 4.77 mM)
[13]; PEG 400 50% v/v in water, 15 °C, aqueous with cosolvent or surfactant or cyclodextrin
  solubility: 1600 µg/mL (≈ 8.98 mM)
[13]; PEG 400, 15 °C, organic solvent or mixture
  solubility: 5120 µg/mL (≈ 28.7 mM)
[13]; Pluronic F68 20% w/v, 15 °C, aqueous with cosolvent or surfactant or cyclodextrin
  solubility: 1080 µg/mL (≈ 6.06 mM)
[13]; Povidone (Kollidon 12PF) 10% w/v, 15 °C, aqueous with cosolvent or surfactant or cyclodextrin
  solubility: 950 µg/mL (≈ 5.33 mM)
[13]; Propylene glycol 50% v/v in water, 15 °C, aqueous with cosolvent or surfactant or cyclodextrin
  solubility: 2580 µg/mL (≈ 14.5 mM)
[13]; Propylene glycol, 15 °C, organic solvent or mixture
  solubility: 3270 µg/mL (≈ 18.4 mM)
[13]; Tween 80 0.2% w/v, 15 °C, aqueous with cosolvent or surfactant or cyclodextrin
  solubility: 900 µg/mL (≈ 5.05 mM)
[13]; Tween 80 20% w/v, 15 °C, aqueous with cosolvent or surfactant or cyclodextrin
  solubility: 1020 µg/mL (≈ 5.73 mM)
[13]; Water for Injections, 15 °C, water
  solubility: 850 µg/mL (≈ 4.77 mM)
[13]; Water for Injections, 20 °C, water
  solubility: 1430 µg/mL (≈ 8.03 mM)
[13]; citrate buffer 0.05 M pH 4 (isotonic), 15 °C, pH 4, aqueous buffer
  solubility: 810 µg/mL (≈ 4.55 mM)
[13]; lactate buffer 0.1 M pH 4 (isotonic), 15 °C, pH 4, aqueous buffer, Lactate buffer O.1M pH 4 (isotonic)
  solubility: 900 µg/mL (≈ 5.05 mM)
[13]; water, in water (text, temperature not given)
  solubility: ~810 µg/mL (≈ 4.55 mM)
[14]
  dose enhancement of alkylating agents: marked dose enhancement leading to synergistic cytotoxic effects on tumor cells
[15]
  LD50: 101 mg/kg
[16]; 0.7 mg/ml in 0.005M citrate buffer pH 4.0, 2 months at 50°C
  Stability: stable
[16]; 0.7 mg/ml in 0.05M citrate buffer pH 4.0, 2 months at 50°C
  Stability: stable
[16]; 0.7 mg/ml in 0.05M citrate buffer pH 4.0, at 70°C
  Stability: evidence of instability
[16]; 0.05M citrate pH 4, compared with the other formulations stressed
  Stability: most stable formulation
[16]; lactate buffer, storage at 70°C after a single autoclave cycle
  Stability: unstable
[17]
  cell kill: less than 1 log
[18]
  IC50: 3 µM
[19]
  IC50: 5 µM
[20]
  IC50: 10 µM
[21]
  Clinical signs and symptoms: salivation, decreases in white blood cell measurements (including lymphocyte count in the dog), and decreases in red blood cell measurements
[22]
  Clinical signs and symptoms: salivation, decreases in white blood cell measurements (including lymphocyte count in the dog), and decreases in red blood cell measurements

## COCC(O)Cn1ccnc1[N+](=O)[O-] (centres unmarked) [Misonidazole]
[23]
  Hypoxic Cytotoxicity Ratio: 15
[24]; [25]
  Hypoxic Cytotoxicity Ratio: 10-15

## CN(C)CCCNc1c2ccccc2nc2cccc([N+](=O)[O-])c12 [Nitracrine]
[24]
  Hypoxic Cytotoxicity Ratio: 7

## CO[C@@]12[C@H](COC(N)=O)C3=C(C(=O)C(C)=C(N)C3=O)N1C[C@H]1[C@@H]2N1C (some centres unmarked) [Porfiromycin]
[23]
  Hypoxic Cytotoxicity Ratio: ~10
[24]; [25]
  Hypoxic Cytotoxicity Ratio: 5-10
